In patent US20250282794A1 (CURADEV PHARMA LTD, priority 2022, published 2025):

biological target: recombinant full length HPK-1 enzyme (Homo sapiens (Human), UniProt Q92918); experiment: HPK-1 biochemical enzyme assay (ADP-Glo kinase inhibition); conditions: recombinant full length HPK-1 6.8 nM, 10 μM ATP, 12.5 μM MBP, 30 mins at 25° C.
In short: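 Recombinant full-length human HPK-1 (6.8 nM) incubated 30 min at 25° C. with 10 μM ATP and 12.5 μM swine MBP in 40 mM Tris pH 7.4, 20 mM MgCl2, 50 μM DTT, 0.1 mg/mL BSA. ADP measured by ADP-Glo; IC50 from 10 concentrations, normalized to no-enzyme and vehicle controls.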

Sequence of recombinant full length HPK-1 enzyme (Q92918 whole entry, species assumed): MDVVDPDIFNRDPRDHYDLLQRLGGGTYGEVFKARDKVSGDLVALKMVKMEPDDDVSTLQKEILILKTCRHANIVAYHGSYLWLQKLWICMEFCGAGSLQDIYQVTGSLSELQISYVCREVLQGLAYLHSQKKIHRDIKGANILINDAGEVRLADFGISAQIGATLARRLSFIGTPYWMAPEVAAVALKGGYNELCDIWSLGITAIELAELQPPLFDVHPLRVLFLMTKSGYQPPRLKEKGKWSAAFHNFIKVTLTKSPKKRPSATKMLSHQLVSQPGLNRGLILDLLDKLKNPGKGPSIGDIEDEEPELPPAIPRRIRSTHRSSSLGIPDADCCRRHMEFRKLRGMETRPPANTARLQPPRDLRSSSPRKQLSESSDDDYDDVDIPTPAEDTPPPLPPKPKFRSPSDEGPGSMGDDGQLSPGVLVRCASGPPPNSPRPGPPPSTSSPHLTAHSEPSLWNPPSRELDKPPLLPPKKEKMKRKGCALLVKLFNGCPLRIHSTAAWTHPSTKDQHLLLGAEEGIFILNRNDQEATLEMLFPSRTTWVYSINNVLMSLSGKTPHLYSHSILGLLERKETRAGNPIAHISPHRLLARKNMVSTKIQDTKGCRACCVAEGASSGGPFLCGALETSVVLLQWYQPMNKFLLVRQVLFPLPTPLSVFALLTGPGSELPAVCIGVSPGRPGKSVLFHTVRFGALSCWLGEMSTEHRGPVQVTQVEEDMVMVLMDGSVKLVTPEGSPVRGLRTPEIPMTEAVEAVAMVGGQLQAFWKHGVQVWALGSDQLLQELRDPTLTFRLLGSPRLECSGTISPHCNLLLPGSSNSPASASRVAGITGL

| IC50 [µM] | SMILES |
| --- | --- |
| 0.01 to 0.1 | Cc1c(Nc2cc[nH]c(=O)c2C(=O)Nc2ccc(N3CCCC3CO)cc2)cnc2c1NCCO2 (centres unmarked) [Example 397, N-(4-(2-(hydroxymethyl)pyrrolidin-1-yl)phenyl)-4-((8-methyl-2,3-dihydro-1H-pyrido[2,3-b][1,4]oxazin-7-yl)amino)-2-oxo-1,2-dihydropyridine-3-carboxamide] |
| 0.01 to 0.1 | Cc1c(Nc2cc[nH]c(=O)c2C(=O)Nc2ccc(N3CCC(O)C3)cc2)cnc2c1NCCO2 (centres unmarked) [Example 398, N-(4-(3-hydroxypyrrolidin-1-yl)phenyl)-4-((8-methyl-2,3-dihydro-1H-pyrido[2,3-b][1,4]oxazin-7-yl)amino)-2-oxo-1,2-dihydropyridine-3-carboxamide] |
| ≤ 0.01 | CCCN1CCN(c2ccc(NC(=O)c3c(Nc4cnc5c(c4C)NCCO5)cc[nH]c3=O)cc2)CC1 [Example 399, 4-((8-methyl-2,3-dihydro-1H-pyrido[2,3-b][1,4]oxazin-7-yl)amino)-2-oxo-N-(4-(4-propylpiperazin-1-yl)phenyl)-1,2-dihydropyridine-3-carboxamide] |
| 0.01 to 0.1 | Cc1cc(NC(=O)c2c(Nc3cnc4c(c3C)NCCO4)cc[nH]c2=O)ccc1N1CCN(C2CC2)CC1 [Example 400, N-(4-(4-cyclopropylpiperazin-1-yl)-3-methylphenyl)-4-((8-methyl-2,3-dihydro-1H-pyrido[2,3-b][1,4]oxazin-7-yl)amino)-2-oxo-1,2-dihydropyridine-3-carboxamide] |
| 0.01 to 0.1 | CCOc1cc(NC(=O)c2c(Nc3cnc4c(c3C)NCCO4)cc[nH]c2=O)ccc1N1CCN(C2CC2)CC1 [Example 401, N-(4-(4-cyclopropylpiperazin-1-yl)-3-ethoxyphenyl)-4-((8-methyl-2,3-dihydro-1H-pyrido[2,3-b][1,4]oxazin-7-yl)amino)-2-oxo-1,2-dihydropyridine-3-carboxamide] |
| 0.01 to 0.1 | CC(=O)N1CCN(c2ccc(NC(=O)c3c(Nc4cnc5c(c4C)NCCO5)cc[nH]c3=O)cc2)CC1 [Example 402, N-(4-(4-acetylpiperazin-1-yl)phenyl)-4-((8-methyl-2,3-dihydro-1H-pyrido[2,3-b][1,4]oxazin-7-yl)amino)-2-oxo-1,2-dihydropyridine-3-carboxamide] |
| ≤ 0.01 | Cc1c(Nc2cc[nH]c(=O)c2C(=O)Nc2ccc(N3CCN(C(=O)CCO)CC3)cc2)cnc2c1NCCO2 [Example 403, N-(4-(4-(3-hydroxypropanoyl)piperazin-1-yl)phenyl)-4-((8-methyl-2,3-dihydro-1H-pyrido[2,3-b][1,4]oxazin-7-yl)amino)-2-oxo-1,2-dihydropyridine-3-carboxamide] |
| ≤ 0.01 | Cc1c(Nc2cc[nH]c(=O)c2C(=O)Nc2ccc(N3CCN(C(C)C)CC3)cc2)cnc2c1NCC(C)O2 (centres unmarked) [Example 404, 4-((3,8-dimethyl-2,3-dihydro-1H-pyrido[2,3-b][1,4]oxazin-7-yl)amino)-N-(4-(4-isopropylpiperazin-1-yl)phenyl)-2-oxo-1,2-dihydropyridine-3-carboxamide] |
| 0.01 to 0.1 | Cc1c(Nc2cc[nH]c(=O)c2C(=O)Nc2ccc(N3CCN(C(C)C)CC3)cc2)cnc2c1NCC(C)O2 (centres unmarked) [Example 405, 4-((3,8-dimethyl-2,3-dihydro-1H-pyrido[2,3-b][1,4]oxazin-7-yl)amino)-N-(4-(4-isopropylpiperazin-1-yl)phenyl)-2-oxo-1,2-dihydropyridine-3-carboxamide] |
| 0.01 to 0.1 | COCCCN1CCN(c2ccc(NC(=O)c3c(Nc4cnc5c(c4C)NCC(C)O5)cc[nH]c3=O)cc2)CC1 (centres unmarked) [Example 406, 4-((3,8-dimethyl-2,3-dihydro-1H-pyrido[2,3-b][1,4]oxazin-7-yl)amino)-N-(4-(4-(3-methoxypropyl)piperazin-1-yl)phenyl)-2-oxo-1,2-dihydropyridine-3-carboxamide] |
| 0.01 to 0.1 | Cc1c(Nc2cc[nH]c(=O)c2C(=O)Nc2ccc(N3CCN(c4ccn(C)n4)CC3)cc2)cnc2c1NCC(C)O2 (centres unmarked) [Example 407, 4-((3,8-dimethyl-2,3-dihydro-1H-pyrido[2,3-b][1,4]oxazin-7-yl)amino)-N-(4-(4-(1-methyl-1H-pyrazol-3-yl)piperazin-1-yl)phenyl)-2-oxo-1,2-dihydropyridine-3-carboxamide] |
| 0.01 to 0.1 | Cc1c(Nc2cc[nH]c(=O)c2C(=O)Nc2ccc(N3CCN(C)CC3CO)cc2)cnc2c1NCCO2 (centres unmarked) [Example 408, N-(4-(2-(hydroxymethyl)-4-methylpiperazin-1-yl)phenyl)-4-((8-methyl-2,3-dihydro-1H-pyrido[2,3-b][1,4]oxazin-7-yl)amino)-2-oxo-1,2-dihydropyridine-3-carboxamide] |
| 0.01 to 0.1 | Cc1c(Nc2cc[nH]c(=O)c2C(=O)Nc2cnn(CC(F)(F)F)c2)cnc2c1NCCO2 [Example 409, 4-((8-methyl-2,3-dihydro-1H-pyrido[2,3-b][1,4]oxazin-7-yl)amino)-2-oxo-N-(1-(2,2,2-trifluoroethyl)-1H-pyrazol-4-yl)-1,2-dihydropyridine-3-carboxamide] |
| 0.01 to 0.1 | Cc1c(Nc2cc[nH]c(=O)c2C(=O)Nc2ccc(N3CCN(c4cnn(C)c4)CC3)cc2)cnc2c1NCCO2 [Example 410, N-(4-(4-(1-methyl-1H-pyrazol-4-yl)piperazin-1-yl)phenyl)-4-((8-methyl-2,3-dihydro-1H-pyrido[2,3-b][1,4]oxazin-7-yl)amino)-2-oxo-1,2-dihydropyridine-3-carboxamide] |
| 0.01 to 0.1 | Cc1c(Nc2cc[nH]c(=O)c2C(=O)Nc2ccc(N3CCC(C4CC4)CC3)cc2)cnc2c1NCCO2 [Example 411, N-(4-(4-cyclopropylpiperidin-1-yl)phenyl)-4-((8-methyl-2,3-dihydro-1H-pyrido[2,3-b][1,4]oxazin-7-yl)amino)-2-oxo-1,2-dihydropyridine-3-carboxamide] |
| 0.01 to 0.1 | Cc1c(Nc2nc[nH]c(=O)c2C(=O)Nc2ccc(N3CCN(C(C)C)CC3)cc2)cnc2c1NCCO2 [Example 412, N-(4-(4-isopropylpiperazin-1-yl)phenyl)-4-((8-methyl-2,3-dihydro-1H-pyrido[2,3-b][1,4]oxazin-7-yl)amino)-6-oxo-1,6-dihydropyrimidine-5-carboxamide] |
| 0.01 to 0.1 | COCCN1CCN(c2ccc(NC(=O)c3c(Nc4cnc5c(c4C)NCCO5)nc[nH]c3=O)cc2)CC1 [Example 413, N-(4-(4-(2-methoxyethyl)-piperazin-1-yl)phenyl)-4-((8-methyl-2,3-dihydro-1H-pyrido[2,3-b][1,4]oxazin-7-yl)amino)-6-oxo-1,6-dihydropyrimidine-5-carboxamide] |
